Common to all, as to test: DTP human tumour cell line panel, 48 h
For test [1], the system named is IGROV1 ovarian.
For test [2], the system named is SNB-19 CNS.
The test system of test [3] is NCI-H226 lung.
Test [4] concerns HCT-15 colon.
For test [5], the system named is HT29 colon.
In test [6] the test system is HCT-116 colon.
The subject of test [7] is ACHN renal.
In test [8] the test system is MDA-MB-435.
For test [9], the system named is BT-549 breast.
Test [10] concerns MOLT-4 leukemia.

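All cell lines were grown in 96-well plates and treated with compound for 48 hours. The concentration for 50% growth inhibition is given as GI50. TGI marks complete inhibition of growth.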

With `O=c1oc2ccc(F)cc2c(=O)n1-c1ccc(Br)cc1F`, the GI50 in test [1] was 0.444 µM; in test [2] it was 0.45 µM; in [3], 1.08 µM; in test [4], 1.29 µM; in test [5], 3.4 µM; in test [6], 0.436 µM. Further, the GI50 in test [7] was 0.59 µM; in [8], 0.623 µM; in [9], 0.411 µM. Moreover, the TGI in test [1] is 22.7 µM; in test [2] it was more than 80.8 µM; in [3] it was 4.87 µM; in [4], 10.9 µM; in [5] it was more than 44.3 µM; in [6] it was 2.69 µM. Besides, the TGI in [7] was found to be 13.6 µM; in test [8], 6.64 µM; in [9], 2.19 µM.
Take `CC1(C)C2CCC13C(=O)C1OC3(C2)C2C(=O)c3c(O)cccc3C(=O)C12` (stereo unspecified): the GI50 in test [10] is 0.111 µM; in test [2], 10.6 µM; in test [3], 7.68 µM; in [4], 0.362 µM; in test [5], 3.58 µM; in test [6], 1.09 µM. In addition, the GI50 in test [7] was 1.56 µM; in test [8], 0.818 µM; in [9], 1.2 µM. In addition, the total growth inhibition concentration (TGI) in [2] worked out at 23.9 µM; in [3], 23.8 µM; in [4] it was 0.905 µM; in test [5], 9.4 µM; in test [6] it was 2.3 µM; in test [7], 2.98 µM. The TGI worked out at 2.5 µM in test [8] and 3.34 µM in [9].
Regarding `O=C(Nc1ccc(Cl)cc1)Nc1ccccc1CNc1nc(Nc2ccc(OCCN3CCCC3)cc2)ncc1Cl`, the GI50 is 1.62 µM in [1]; 1.19 µM in [10]; 2.5 µM in test [2]; 1.01 µM in test [4]; 1.19 µM in [5]; 0.927 µM in [6]. Also, the figures for the GI50 in [7], in test [8] and in test [9] were 0.929 µM, 0.935 µM and 5.87 µM, respectively. Besides, the TGI stood at 5.72 µM in test [1]; 2.99 µM in test [10]; 11.6 µM in test [2]; 2.6 µM in test [4]; 3.28 µM in [5]; 1.85 µM in test [6]. Besides, the total growth inhibition concentration (TGI) turned out to be 1.78 µM in [7], 1.93 µM in test [8] and 12.6 µM in [9].
Consider `COc1ccc(/C=C/C(=O)C(C)(C)Br)cc1`, for which the concentration for total growth inhibition (TGI) is 5.76 µM in test [1]; 18.9 µM in test [10]; 88.7 µM in test [2]; 7.69 µM in test [4]; 9.83 µM in [6]; 25.7 µM in test [7]. The TGI turned out to be 34.3 µM in [8] and 7.06 µM in test [9].
As to `O=C(/C=C/c1cn(-c2ccccc2)nc1-c1ccc([N+](=O)[O-])cc1)c1ccc(Cl)cc1`, the GI50 in [1] is 3.54 µM; in test [10] it was 1.27 µM; in test [2], 4.12 µM; in test [6] it was 2.42 µM; in [7] it was 3.64 µM; in test [9], 3.13 µM. In addition, the total growth inhibition concentration (TGI) in test [1] was more than 100 µM; in test [10], more than 100 µM; in test [2], 27 µM; in test [3], more than 100 µM; in [6] it was more than 100 µM; in [7] it was more than 43.6 µM. In addition, the concentration for total growth inhibition (TGI) in [9] is more than 32.1 µM.
Turning to `Cc1cc(=O)oc2cc(OCCn3c(C)nn(-c4ccc(Cl)cc4)c3=O)ccc12`, the GI50 in test [1] was 35 µM; in test [10], 4.71 µM; in [2], 5.37 µM; in test [4] it was 3.2 µM; in test [5], 3.82 µM; in test [6], 3.57 µM. The GI50 is 5.59 µM in test [7], 0.269 µM in test [8] and 16.5 µM in test [9]. Besides, the TGI in [1], in test [10], in [2], in test [4], in [5] and in [6] was more than 100 µM in each case. Besides, the results for the TGI in test [7], in test [8] and in test [9] were more than 100 µM, 0.837 µM and 99.4 µM, respectively.
Take `COc1ccc2c(c1)nc1n2C(c2ccc(F)cc2)SC1` (stereo unspecified): the GI50 is 26.5 µM in [1]; 26.8 µM in test [10]; 36.5 µM in test [2]; 19.1 µM in test [3]; 19.7 µM in [4]; 30.8 µM in [6]. Also, the GI50 in [7] was 20.8 µM; in [8], 21.8 µM; in [9] it was 17.1 µM. Also, the concentration for total growth inhibition (TGI) in [1] is 99.4 µM; in test [10] it was more than 100 µM; in test [2], more than 100 µM; in [3], 54.1 µM; in test [4] it was 42.8 µM; in test [6], more than 100 µM. Moreover, the concentration for total growth inhibition (TGI) in test [7] is 47.3 µM; in test [8] it was 59.5 µM; in [9], 42.1 µM.
With `COc1ccc(-c2nc3c(c(=O)n2C(C)=O)C(c2ccc(Cl)cc2)c2sc4c(Cl)cccc4c2O3)cc1` (stereo unspecified), the GI50 in test [1] was 0.512 µM; in test [10] it was 0.386 µM; in [2] it was 0.413 µM; in test [3] it was 0.329 µM; in [4], 0.301 µM; in [5], 0.325 µM. The values for the concentration for 50% growth inhibition (GI50) in test [6], in [7] and in test [9] were 0.341 µM, 0.897 µM and 0.355 µM, respectively. The total growth inhibition concentration (TGI) came out at 3.12 µM in test [1]; 2.64 µM in test [10]; 2.01 µM in [2]; 2.24 µM in [3]; 1.66 µM in test [4]; 1.09 µM in test [5]. Besides, the TGI in test [6] came to 1.38 µM; in test [7], 4.51 µM; in test [9] it was 2.07 µM.
As to `C1=C2CNCC3=Cc4ccc5ccccc5c4OC23Oc2c1ccc1ccccc21`, the GI50 in test [1] is 9.59 µM; in test [10] it was 2.86 µM; in test [2], 6.95 µM; in test [3] it was 10.6 µM; in test [4] it was 3.9 µM; in test [6], 3.01 µM. Further, the GI50 in [9] is 11.3 µM. For the same compound, the concentration for total growth inhibition (TGI) in test [1] worked out at 28.7 µM; in [10], 10.6 µM; in test [2], 29.3 µM; in test [3] it was 27.6 µM; in test [4], 22.6 µM; in test [6], 13.1 µM. Also, the total growth inhibition concentration (TGI) in test [9] stood at 40.7 µM.
With `NC(N)=N/N=C/c1c(-c2ccc(Cl)c([N+](=O)[O-])c2)nc2n1CCS2`, the GI50 is 3.4 µM in test [10]; 4.67 µM in test [2]; 4.24 µM in test [3]; 23.1 µM in test [4]; 6.13 µM in test [5]; 1.62 µM in [6]. The GI50 in test [7] is 15.7 µM; in test [8], 9.63 µM; in [9], 21.5 µM. Besides, the TGI is 36 µM in [10]; more than 100 µM in [2]; 24 µM in test [3]; 67.3 µM in test [4]; 30.9 µM in [5]; 2.97 µM in test [6]. Further, the total growth inhibition concentration (TGI) in test [7] came out at 37.2 µM; in test [8], 22.2 µM; in test [9], 50.2 µM.
In the case of `CCCCCCCCCCCCCCCCS(=O)(=O)c1ccc(NN)cc1`, the TGI in [1], in test [10], in test [2], in test [4], in test [5] and in [6] was more than 10 µM throughout. Moreover, the TGI in test [7], in test [8] and in test [9] was more than 10 µM in each case.
As for `C=C(CNCCc1ccc(O)cc1)[C@@H]1CC[C@]2(CO)CC[C@]3(C)[C@H](CC[C@@H]4[C@@]5(C)CCC(N)C(C)(C)[C@@H]5CC[C@]43C)[C@@H]12` (stereo partly specified), the GI50 was 1.22 µM in test [2]; 1.83 µM in [3]; 0.46 µM in test [5]; 1.78 µM in test [7]; 1.52 µM in [8]; 1.7 µM in [9]. The TGI was 2.53 µM in [2]; 3.78 µM in test [3]; 1.81 µM in test [5]; 3.19 µM in test [7]; 2.85 µM in test [8]; 3.53 µM in test [9].
`c1cnc2[nH]cc(-c3csc(-c4cn(CCCN5CCCCC5)c5ccccc45)n3)c2c1`: the GI50 in test [10] was 1.82 µM; in test [4], 1.72 µM; in [5], 1.75 µM; in [7], 1.66 µM; in [8] it was 1.67 µM; in [9], 1.68 µM. For the same compound, the TGI in test [10] came to 3.52 µM; in test [4], 3.18 µM; in [5], 3.44 µM; in test [7], 3.05 µM; in [8] it was 3.09 µM; in [9] it was 3.24 µM.
For the compound `CCOCNc1ccc(N2C(=O)/C(=C/c3ccc(N(CC)CC)cc3)N=C2c2ccccc2)cc1`, the GI50 is 4.57 µM in test [10]; 7.57 µM in [2]; 8.24 µM in test [3]; 1.06 µM in test [4]; 6.88 µM in test [5]; 2.4 µM in [6]. The GI50 in [7] is 17.5 µM; in [8], 69.1 µM; in [9], 33.5 µM. For the same compound, the TGI is more than 100 µM in [10]; 55.3 µM in test [2]; more than 100 µM in test [3]; more than 100 µM in [4]; more than 100 µM in test [5]; 53.4 µM in test [6]. In addition, the TGI in test [7], in test [8] and in test [9] was more than 100 µM throughout.

For orientation: GI50 means the concentration at which growth is held to half of that of the control. As a reminder, the TGI is the concentration at which net growth stops.

For the origin of these results see PubChem BioAssay (NCI).
